Reference: patent US20240101551A1, “CRYSTAL FORM AND SALT FORM OF BROMINE DOMAIN PROTEIN INHIBITOR AND PREPARATION METHOD THEREFOR” (CHIA TAI TIANQING PHARMACEUTICAL GROUP CO., LTD., priority 2020, published 2024)
Values joined by “and” are separate entries in the source; they are usually repeats but may differ in a detail not shown here. Equal values may be shown once.

How the values were obtained:
Assay type in all cases: physicochemical
[1] = Study on stability of the crystal form I under influencing factors (Experimental Example 2)
Description: In order to evaluate the solid stability of the crystal form I of the present application, the stability of the crystal form I under influencing factors (high temperature, high humidity and light) was investigated. The crystal form I was stored under the high temperature condition (40° C., open (weighing bottle)), the high temperature condition (60° C., open (weighing bottle)), the high humidity condition (room temperature, 75% RH, open (weighing bottle)) and the high humidity condition (room temperature, 92.5% RH, open (weighing bottle) and packaged) for 5 days, 10 days and 30 days, and under the ICH light condition (5500 Lux, 0.9 w/m^2, open (weighing bottle) and packaged) for 5 days and 10 days. The inner packaging material of the packaged sample was a double-layer low-density polyethylene bag, and the outer packaging material is a polyester/aluminum/polyethylene composite bag for medicine packaging. The samples after the storage were determined for properties, related substances (HPLC), crystal form (XRD), water content and content to investigate the influence of high temperature, high humidity and light conditions on the product. The results are shown in Table 13 (“^#” indicates the ICH condition).

[2] = Study on accelerated stability and long-term stability of the crystal form I
Description: The crystal form I was placed under the accelerated condition (40±2° C., 75%±5% RH, and packaged) for 1, 2, 3 and 6 months, and under the long-term condition (25±2° C., 65%±5% RH, and packaged) for 3, 6, 9, 12, 18, 24 and 36 months to investigate its acceleration and long-term stability. The inner packaging material of the packaged sample was a double-layer low-density polyethylene bag, and the outer packaging material is a polyester/aluminum/polyethylene composite bag for medicine packaging. The samples after the storage were determined for properties, related substances (HPLC), crystal form (XRD), water content and content to investigate the stability of the product.

[3] = Particle size distribution test after jet milling (light scattering); settings: for X90 Mean: mean of 3 experiments; for X90: single experiments 1-3
Description: The particle size distribution X90 described herein is determined by a light scattering method (Method 3 of Determination of Particle Size and Distribution of General Chapter 0982, Chinese Pharmacopoeia, Volume IV, 2020 Edition).
After jet milling, the crystal form I was tested for the particle size distribution by referring to Method 3 (a light scattering method) of Determination of Particle Size and Distribution of General Chapter 0982, Chinese Pharmacopoeia, Volume IV, 2020 Edition, with the specific steps as follows: 10 mg of the sample was weighed and placed in a laser scattering particle size distribution analyzer for testing (trigger conditions: 10 s, 1%; dispersion pressure: 2.0 bar).

[4] = Study on accelerated stability and long-term stability of the crystal form I; settings: long-term, 25° C. ± 2° C., 60% ± 5% RH, packaged
[5] = 75% RH, room temperature, open, 5 days
[6] = 75% RH, room temperature, open, 10 days
[7] = 75% RH, room temperature, open, 30 days
[8] = 92.5% RH, room temperature, open, 5 days
[9] = 92.5% RH, room temperature, open, 10 days
[10] = 92.5% RH, room temperature, open, 30 days
[11] = Light (ICH, 5500 Lux), open, 5 days
[12] = Light (ICH, 5500 Lux), open, 10 days
[13] = accelerated, 40° C. ± 2° C., 75% ± 5% RH, packaged, 1 month
[14] = accelerated, 40° C. ± 2° C., 75% ± 5% RH, packaged, 2 months
[15] = accelerated, 40° C. ± 2° C., 75% ± 5% RH, packaged, 3 months
[16] = accelerated, 40° C. ± 2° C., 75% ± 5% RH, packaged, 6 months
[17] = long-term, 25° C. ± 2° C., 60% ± 5% RH, packaged, 6 months

- Crystal form change ([1]; 40° C., open, 5 days): Unchanged
- Impurity content ([1]; 40° C., open, 5 days): 0.06%
- Water content ([1]; 40° C., open, 5 days): 0.02%
- Crystal form change ([1]; 40° C., open, 10 days): Unchanged
- Impurity content ([1]; 40° C., open, 10 days): 0.08%
- Water content ([1]; 40° C., open, 10 days): 0.01%
- Crystal form change ([1]; 40° C., open, 30 days): Unchanged
- Impurity content ([1]; 40° C., open, 30 days): 0.08%
- Water content ([1]; 40° C., open, 30 days): 0.02%
- Crystal form change ([1]; 60° C., open, 5 days): Unchanged
- Impurity content ([1]; 60° C., open, 5 days): 0.07%
- Water content ([1]; 60° C., open, 5 days): 0.01%
- Crystal form change ([1]; 60° C., open, 10 days): Unchanged
- Impurity content ([1]; 60° C., open, 10 days): 0.08%
- Water content ([1]; 60° C., open, 10 days): 0.01%
- Crystal form change ([1]; 60° C., open, 30 days): Unchanged
- Impurity content ([1]; 60° C., open, 30 days): 0.09%
- Water content ([1]; 60° C., open, 30 days): 0.02%
- Crystal form change [1, 5]: Unchanged
- Impurity content [1, 5]: 0.06%
- Water content [1, 5]: 0.02%
- Crystal form change [1, 6]: Unchanged
- Impurity content [1, 6]: 0.08%
- Water content [1, 6]: 0.03%
- Crystal form change [1, 7]: Unchanged
- Impurity content [1, 7]: 0.08%
- Water content [1, 7]: 0.04%
- Crystal form change ([1]; 92.5% RH, packaged, 5 days): Unchanged
- Impurity content ([1]; 92.5% RH, packaged, 5 days): 0.06%
- Water content ([1]; 92.5% RH, packaged, 5 days): 0.02%
- Crystal form change ([1]; 92.5% RH, packaged, 10 days): Unchanged
- Impurity content ([1]; 92.5% RH, packaged, 10 days): 0.08%
- Water content ([1]; 92.5% RH, packaged, 10 days): 0.01%
- Crystal form change ([1]; 92.5% RH, packaged, 30 days): Unchanged
- Impurity content ([1]; 92.5% RH, packaged, 30 days): 0.08%
- Water content ([1]; 92.5% RH, packaged, 30 days): 0.03%
- Crystal form change [1, 8]: Unchanged
- Impurity content [1, 8]: 0.06%
- Water content [1, 8]: 0.03%
- Crystal form change [1, 9]: Unchanged
- Impurity content [1, 9]: 0.08%
- Water content [1, 9]: 0.03%
- Crystal form change [1, 10]: Unchanged
- Impurity content [1, 10]: 0.08%
- Water content [1, 10]: 0.06%
- Crystal form change ([1]; Light (ICH), packaged, 5 days): Unchanged
- Impurity content ([1]; Light (ICH), packaged, 5 days): 0.06%
- Water content ([1]; Light (ICH), packaged, 5 days): 0.02%
- Crystal form change ([1]; Light (ICH), packaged, 10 days): Unchanged
- Impurity content ([1]; Light (ICH), packaged, 10 days): 0.08%
- Water content ([1]; Light (ICH), packaged, 10 days): 0.02%
- Crystal form change [1, 11]: Unchanged
- Impurity content [1, 11]: 0.06%
- Water content [1, 11]: 0.01%
- Crystal form change [1, 12]: Unchanged
- Impurity content [1, 12]: 0.08%
- Water content [1, 12]: 0.02%
- Impurity content ([1]; starting crystal form I): 0.05%
- Water content ([1]; starting crystal form I): 0.02%
- Crystal form change [2, 13]: Unchanged
- Impurity content [2, 13]: 0.08%
- Water content [2, 13]: 0.03%
- Crystal form change [2, 14]: Unchanged
- Impurity content [2, 14]: 0.08%
- Water content [2, 14]: 0.03%
- Crystal form change [2, 15]: Unchanged
- Impurity content [2, 15]: 0.08%
- Water content [2, 15]: 0.03%
- Crystal form change [2, 16]: Unchanged
- Impurity content [2, 16]: 0.08%
- Water content [2, 16]: 0.03%
- Stability (conclusion) ([2]; influencing factors, accelerated and long-term conditions): good stability
- Crystal form change ([2]; long-term, 25° C. ± 2° C., 60% ± 5% RH, packaged, 3 months): Unchanged
- Crystal form change [2, 17]: Unchanged
- Impurity content [2, 17]: 0.08%
- Impurity content ([2]; starting crystal form I): 0.05%
- Water content ([2]; starting crystal form I): 0.02%
- X90 Mean ([3]; milling pressure 0.1 MPa): 11.50 μm
- X90 ([3]; milling pressure 0.1 MPa): 11.54 μm and 11.46 μm and 11.50 μm
- X90 Mean ([3]; milling pressure 0.3 MPa): 5.82 μm
- X90 ([3]; milling pressure 0.3 MPa): 5.78 μm and 6.02 μm and 5.67 μm
- Impurity content ([4]; 3 months): 0.08%
- Water content ([4]; 3 months): 0.03%
- Water content ([4]; 6 months): 0.04%
SMILES: Cn1cc(-c2nc(N=S(C)(C)=O)ccc2Oc2ccc(F)cc2F)c2cc[nH]c2c1=O [crystal form I]
